# Data reported in patent US9890403B2, “Method for producing single cell oil from lignocellulosic materials” (NESTE OYJ, priority 2013, dated 2018).
# Where two headings read alike, the source gives them in different places.
# What was measured:
# Aspergillus. oryzae = details: 5 days, 28 C
# Method: The experiments were done using a lipid producing fungal strain Aspergillus. oryzae. From the sporulating fungus grown on PDA-plates a spore suspension was made by adding 12 ml of sterile water and the spores were scraped off with inoculation loop to the liquid. The spore suspension was used for media inoculation.
# All of them contained these basic nutrients, and small amount of fine cellulose to prevent the fungus from clumping.
# The organic acids were added in so the concentration of the formic and acetic acid alone was 0, 1, 3, 5 and 7 g/l, and for the two acids together 0, 1, 3, 5, 7 and 9 g/l. After this the pH of the media was adjusted to 5.5-6.0 using 3 M NaOH. The medium was distributed to 50 ml batches into 250 ml erlenmayer flasks. The media was sterilized in autoclave 121 C 15 min. After cooling down, each flask was inoculated using 0.5 ml spore suspension mentioned earlier. For each concentration, parallel cultivations were made. The cultivations were incubated in 160 rpm shaking at 28 C 5 days. The growth was observed daily with a microscope, and in the end of the cultivation the biomass and lipid contents were determined.
# The biomass content was determined by vacuum filtering the whole content of the flask and washing the biomass with 50 ml of distilled water. After this the biomass cakes were frozen and dried overnight in freeze dryer. From the dries biomass the lipid content was analyzed according to Suutari et al. (1990). The lipids in the samples were first hydrolysed into free fatty acids, which were saponified into sodium salts thereof and thereafter methylated into methyl esters. The fatty methyl esters were analysed gas chromatographically.
# Aspergillus oryzae TKK-4 = experiment: Effect of furfural on microbial growth, flask cultivation (Example 7); assay type: cell-based; details: for DW (dry weight concentration): after 6 days of cultivation
# Method: (§1) Two fungal strains Aspergillus oryzae TKK-4 and Mortierella isabellina TKK-1 and one yeast strain Lipomyces starkeyi TKK-1 were cultivated in flasks in a standard medium (Table 12) with furfural addition. The microorganisms were grown for 6 days in 28° C. with 160 rpm (for fungi) and 250 rpm (for yeast). Cellulose was added to help the fungus grow with a better morphology. Furfural was added in different amounts into the medium (0-4 g/l) and the growth of the microorganisms was observed.
# Lipomyces starkeyi TKK-1 = experiment: as above; assay type: cell-based; details: for DW (dry weight concentration): after 6 days of cultivation
# Method: as §1
# [1] = tested on: Mortierella isabellina TKK-1; experiment: as above; assay type: cell-based; details: for DW (dry weight concentration): after 6 days of cultivation
# Method: as §1
Structure (SMILES),Biomass concentration (Aspergillus. oryzae; acid concentration 1 g/l),Lipid content (Aspergillus. oryzae; acid concentration 1 g/l),Biomass concentration (Aspergillus. oryzae; acid concentration 3 g/l),Lipid content (Aspergillus. oryzae; acid concentration 3 g/l),Biomass concentration (Aspergillus. oryzae; acid concentration 5 g/l),Lipid content (Aspergillus. oryzae; acid concentration 5 g/l),Biomass concentration (Aspergillus. oryzae; acid concentration 7 g/l),Lipid content (Aspergillus. oryzae; acid concentration 7 g/l),further results
"CC(=O)O [Acetic acid, acetic acid]",12.4 g/L,19.8 % from cell dry weight,11.4 g/L,20.7 % from cell dry weight,11.1 g/L,21.2 % from cell dry weight,11.5 g/L,24.3 % from cell dry weight,
"O=CO [Formic acid, formic acid]",12.5 g/L,19.5 % from cell dry weight,12.0 g/L,19.5 % from cell dry weight,11.2 g/L,15.9 % from cell dry weight,10.9 g/L,19.8 % from cell dry weight,
O=Cc1ccco1 [Furfural],,,,,,,,,Furfural concentration in which the microbe grew (Aspergillus oryzae TKK-4; after one week): 0.5 g/L; Furfural concentration that inhibited the growth completely (Aspergillus oryzae TKK-4; after one week): ≥ 0.75 g/L; DW (dry weight concentration) (Aspergillus oryzae TKK-4; furfural 0.1 g/l): 18.18 g/L; DW (dry weight concentration) (Aspergillus oryzae TKK-4; furfural 0.2 g/l): 16.54 g/L; DW (dry weight concentration) (Aspergillus oryzae TKK-4; furfural 0.3 g/l): 13.53 g/L; DW (dry weight concentration) (Aspergillus oryzae TKK-4; furfural 0.4 g/l): 11.58 g/L; Inhibiting concentration of furfural (Lipomyces starkeyi TKK-1): ≥ 1.8 g/L; Furfural concentration in which the microbe grew (Lipomyces starkeyi TKK-1; after a few days): 1.2 g/L; DW (dry weight concentration) (Lipomyces starkeyi TKK-1; furfural 0.6 g/l): 14.79 g/L; DW (dry weight concentration) (Lipomyces starkeyi TKK-1; furfural 1.2 g/l): 14.39 g/L; Furfural concentration in which the microbe did not grow [1]: ≥ 1 g/L; Furfural concentration in which some growth was observed ([1]; after 4-6 days): 0.8 g/L; DW (dry weight concentration) ([1]; furfural 0.2 g/l): 7.02 g/L; DW (dry weight concentration) ([1]; furfural 0.4 g/l): 13.80 g/L; DW (dry weight concentration) ([1]; furfural 0.6 g/l): 14.96 g/L; DW (dry weight concentration) ([1]; furfural 0.8 g/l): 9.28 g/L
